Laboratory results as given in US8349371B2, “Method for anti-oxidation, inhibiting activity and/or expression of matrix metalloproteinase, and/or inhibiting phosphorylation of mitogen-activated protein kinase using neonauclea reticulata leaf extracts” (China Medical University, priority 2010, dated 2013).
Values joined by “and” are separate entries in the source; they are usually repeats but may differ in a detail not shown here. Equal values may be shown once.

Legend:
MMP-1 = assay: Inhibition test of matrix metalloproteinase expression in UVB-irradiated fibroblast Hs68 (western blotting): MMP-1; type: cell-based, human; details: expression relative to control group (1.00); UVB 40 mJ/cm^2, Hs68; 10 μg/mL
Protocol: (§1) A total of 5×10^5 fibroblast Hs68 (human foreskin fibroblast, Bioresource Collection and Research Center (BCRC) number:60038, purchased from Food Industry Research and Development Institute (FIRDI)) was counted and cultivated in a culture medium (90% Dulbecco's modified Eagle's medium adjusted with 4 mM of L-glutamine, containing 1.5 g/L NaHCO3, 4.5 g/L glucose, and 10% heat-inactivated fetal bovine serum) with a diameter of 10 cm. After the fibroblast Hs68 grew to a density of 80%, the culture solution was removed, and the cells were rinsed with 5 mL of a phosphate buffer saline (PBS) solution once. Then, 3 mL of a phenol red-free culture solution containing the Neonauclea reticulata leaf water extract with different concentrations ([…]) was added into the culture medium, and was reacted for 1 hour. The cells were placed under ultraviolet light (40 mJ/cm^2, Ultraviolet B (UVB)) for irradiation. […] Using luminescence imaging technology with an associated analysis software and LAS-4000 (FUJIFILM) to record the image, and a quantitative analysis was carried out by multi Gauge […] […]

MMP-3 = assay: Inhibition test of matrix metalloproteinase expression in UVB-irradiated fibroblast Hs68 (western blotting): MMP-3; type: cell-based, human; details: expression relative to control group (1.00); UVB 40 mJ/cm^2, Hs68; 10 μg/mL
Protocol: as §1

MMP-9 = assay: Inhibition test of matrix metalloproteinase expression in UVB-irradiated fibroblast Hs68 (western blotting): MMP-9; type: cell-based, human; details: expression relative to control group (1.00); UVB 40 mJ/cm^2, Hs68; 10 μg/mL
Protocol: as §1

[1] = Anti-oxidation test: DPPH free radicals removal test; type: biochemical; details: DPPH scavenging, 50 μg/mL
Protocol: A 100 μL of the Neonauclea reticulata leaf water extract, methanol extract, or the hydrolytes thereof with different concentrations (10 to 100 μg/mL) and a 100 μL. DPPH solution (200 μM) dissolved in methanol were added in a 96-well microplate, and were mixed evenly and placed under 37° C. away from light for 30 minutes. The absorbance of the mixture was determined by an enzyme immunoassay instrument under a wavelength of 517 nm. In this test, the extract was replaced by 50 vol % propylene glycol as the control group, and ascorbic acid (vitamin C) was used as a positive control group, and DPPH was replaced by methanol for determining the background value. The ability of the Neonauclea reticulata leaf extract to remove free radicals was calculated by the following formula. The results are shown in Table 5 to Table 7 and FIG. 12 to FIG. 14. [formula]

Structure (SMILES) | MMP-1 (MMP-1) | MMP-3 (MMP-3) | MMP-9 (MMP-9) | Inhibition ([1]; Table 5) | Inhibition Rate ([1]; Tables 6 and 7)
O=C(O[C@@H]1Cc2c(O)cc(O)cc2O[C@@H]1c1cc(O)c(O)c(O)c1)c1cc(O)c(O)c(O)c1 [EGCG] | 1.10 ± 0.15 | 1.15 ± 0.16 | 0.95 ± 0.26 | – | –
O=C1O[C@H]([C@@H](O)CO)C(O)=C1O [Vitamin C, ascorbic acid] | – | – | – | 98.60 ± 0.32 | 88.36 ± 2.71 and 97.99 ± 0.12
